Reference: EP0315782A2, “Method for the production of proteins” (priority 1987, dated 1989)
Like-named read-outs stand apart in the source and are kept apart here.

How the values were obtained:
Assay type in all cases: cell-based, chinesische Hamster
[1] = test system: CHO-Zellen; experiment: t-PA production in transformed CHO cells, medium with 7.5% FKS, supernatant, direct chromogenic assay (DCA); settings: for Stimulierung der t-PA-Produktion: after 24 h
Description: (§1) Der Vektor für die t-PA-Produktion wurde in einem Subklon, CHO-K1-DUX B11, integriert (Urlaub et al., Proceedings of the National Academy of Science, USA, 77: 4216-4220, 1980). Diese Zell-Linie, eine Dihydrofolat Reduktase negative Mutante (DHFR-), ist für eine DHFR-abhängige Selektion der transfizierten Zellklone geeignet. Der Vektor für die humane c-DNA kann ein bekannter Plasmid-Vektor pBR-322 oder deren Abkömmling von Escherichia coli sein. Die Promotorregion für das in Frage kommende Gen und für das DHFR-Gen stammt aus SV 40 und die Terminationsregion für beide Gene von einem Hepatitis B-Oberflächenantigen. In den Beispielen wurden CHO-K1-DUX B11-Zellen, die durch die Plasmide pETPER oder pEPEFR transformiert sind, verwendet (siehe EP-A 0117059).
(§2) Die Zellkulturen werden bei 37°C in einem Hereaus-Brutschrank inkubiert und mit einem Kohlendioxid-Luftgemisch von 7,5% CO₂ in einer relativen Luftfeuchtigkeit von 100% belüftet. Je nach Verfahrensansatz werden unterschiedliche Kulturgefäße benutzt: Spinnergefäße für 100-1000 ml Medium, Roux-Schalen (Nunc) 175 cm² (70-100 ml Medium), 75 cm² (30-50 ml Medium), 25 cm² (7-10 ml Medium) und Mehrfachkulturschalen von Costar mit 2 cm² für 1 ml Kulturen. Für die Stammhaltung werden die Zellen in einer Dichte von 0,2-0,3 x 10⁶ Zellen/ml eingesetzt und alle 2-3 Tage subkloniert.
(§3) Die Protein-Produktion stimulierenden Substanzen können zu den verschiedenen Zeitpunkten jeweils in einer 1:100 Verdünnung zugegeben werden, d.h. sie wurden zuerst in Medium gelöst oder, wenn sie schwerlöslich sind, erst in Äthylalkohol gelöst und danach in Medium zugesetzt und dann das diese Substanz enthaltende Medium dem zellenthaltenden Medium im Verhältnis 1:100 v/v zugegeben.
(§4) In den folgenden Beispielen wurden, um die Stimulierung der t-PA-Synthese hervorzurufen, Zellen einer exponentiell wachsenden Kultur entnommen und in Plastikröhrchen (Falcon) 10 Min. bei 1000 x g in einer Beckmann T 3-6 Zentrifuge abzentrifugiert. Nach Dekantieren des Überstandes wurde das Zellpellet mit frischem Medium resuspendiert.
Für die Produktion von t-PA in serumhaltigem Medium wurde als frisches Medium F12/DMEM + 7,5% FKS + Gentamycin verwendet. Die resultierende Suspension kann in 2 cm² 24 Wells-Platten bei einer Zelldichte von 0,2-0,3 x 10⁶ Zellen/ml angesetzt werden.
(§5) Aliquots von Zellüberständen und Zellextrakten wurden zu verschiedenen Zeitpunkten abgenommen bzw. hergestellt. Die Messung der Proben erfolgte entweder sofort oder nach Aufbewahrung bei -20°C mit folgenden Methoden:
Von dem synthetischen Peptidsubstrat S-2288 (D-H-Ile-Pro-Arg-p-Nitroanilin) der Firma Kabi Diagnostica wird durch das t-PA p-Nitroanilin als Reaktionsprodukt gebildet. Die Aktivität von t-PA ist zur Bildung von p-Nitroanilin proportional, die bei […], 37°C, gemessen wird.
Die spektrophotometrische Bestimmung der Enzymkinetik wurde mit einem ACP-5010-Analysengerät der Firma Eppendorf automatisch durchgeführt.
Die Aktivität des Enzyms wurde anhand dieses vorgegebenen Standards berechnet. Eine t-PA-Standardreihe von 1-15 µg/ml wurde mit einem Laborstandard hergestellt, der zu 72% aus 1-kettigem Material besteht.
Die Substratlösung (100 mM Tris/106 mM NaCl) wurde in einer Konzentration von 50 mM eingesetzt.

[2] = test system: CHO-Zellen; experiment: t-PA production in transformed CHO cells, serum-free medium (DCA or determination method not given)
Description: Diese Zell-Linie, eine Dihydrofolat Reduktase negative Mutante (DHFR-), ist für eine DHFR-abhängige Selektion der transfizierten Zellklone geeignet. […] Die Promotorregion für das in Frage kommende Gen und für das DHFR-Gen stammt aus SV 40 und die Terminationsregion für beide Gene von einem Hepatitis B-Oberflächenantigen.
Im folgenden Beispiel wird ein nachseziertes DMEM/Ham's F 12 Medium (1:1) (Gibco) als serumfreies Medium verwendet. Als Zusatz wird fötales Kälberserum (FKS) in einer Konzentration von 7,5% oder 1-2% verwendet.
as §2, §3, §4
Für die Produktion von t-PA in serumfreiem Medium wurden die Zellen zuvor 3-4 Tage in einem Medium von 1-2% FKS adaptiert, wieder abzentrifugiert und das Zellpellet in serumfreiem Medium resuspendiert und anschließend in 2 cm² 24 Wells-Platten in einer Zelldichte von 0,4-0,5 x 10⁶ Zellen/ml überführt.
as §5
Die Aktivität des Enzyms wurde anhand dieses vorgegebenen Standards berechnet.

[3] = test system: CHO-Zellen; experiment: t-PA production in transformed CHO cells, medium and determination method not stated; settings: 10 mM; for activation at 10000 µM: CHO
Description: as §1, §2, §3, §4
Aliquots von Zellüberständen und Zellextrakten wurden zu verschiedenen Zeitpunkten abgenommen bzw. hergestellt. Die Messung der Proben erfolgte entweder sofort oder nach Aufbewahrung bei -20°C mit folgenden Methoden: […]

[4] = Table 3, mean ± SE, n = 3-24, production runs of 3 to 4 days, acids added day 0 to 3, 1 ml supernatant vs control (0%), 7,5% FKS
[5] = Table 3, single sample, 1 ml supernatant vs control (0%), 7,5% FKS, its concentration, addition and sampling day in brackets in Tables 3/3A
[6] = Table 3, stimulation of t-PA synthesis, medium with 7,5% FKS, bracketed value = concentration of the single (maximum) sample
[7] = Table 4, Applikationstag 0, after 48 h growth, 7,5% FKS, 1 mM or 5 mM, 1 ml supernatant vs control (0%), mean ± SE
[8] = Table 4, Applikationstag 1, after 48 h growth, 7,5% FKS, 1 mM or 5 mM, 1 ml supernatant vs control (0%), mean ± SE
[9] = Table 7, mean ± SE, n = 4-9, runs of 4 days, acids added day 0, 7,5% FKS, 1 ml supernatant vs control (0%)
[10] = Table 7, single sample (added day 0, sampled day 2), 7,5% FKS, 1 ml supernatant vs control (0%)
[11] = Table 8, 7,5% FKS, bracketed value = concentration of the single sample
[12] = Table 8, mean ± SE, n = 6-19, runs of 3 days, added day 0 to 2, 7,5% FKS, 1 ml supernatant vs control (0%)
[13] = Table 8, single sample, 7,5% FKS, 1 ml supernatant vs control (0%)
[14] = Table 10, 7,5% FKS, bracketed value = concentration of the single sample
[15] = Table 10, mean ± SE, runs of 4 days, added day 1, sampled days 2-4, 7,5% FKS, 1 ml supernatant vs control (0%)
[16] = Table 10, single sample (added day 1, sampled day 4), 7,5% FKS, 1 ml supernatant vs control (0%)

CC(C)CC(=O)O [Isovaleriansäure]
% Steigerung der t-PA-Synthese Durchschnitt [1, 4]: 18,7 ± 2,4% | % Steigerung der t-PA-Synthese Maximum [1, 5]: 39,3% | optimaler Dosisbereich [1, 6]: 1-20 mM ( 5 mM) | Steigerung der t-PA-Produktion [1, 7]: 17,2 ± 1,0% | Steigerung der t-PA-Produktion [1, 8]: 19,4 ± 1,5% | Stimulierung der t-PA-Produktion ([1]; medium with 7,5% FKS (Abb. 7)): 24,8 ± 0,5% | Steigerung der t-PA-Produktion ([1]; day 4, medium with 7,5% FKS (Abb. 7)): 8,5%

O=C(O)CSCC(=O)O [Thiodiglykolsäure]
% Steigerung der t-Pa-Synthese Durchschnitt [1]: 18,0 ± 3,8% | % Steigerung der t-Pa-Synthese Maximum [1]: 31,0% | optimaler Dosisbereich [1]: 1 mM

O=CO [Ameisensäure, reference compound]
% Steigerung der t-PA-Synthese Durchschnitt [1, 4]: 6,5 ± 0,9% | % Steigerung der t-PA-Synthese Maximum [1, 5]: 7,4% | optimaler Dosisbereich ([1]; Table 3, stimulation of t-PA synthesis, medium with 7,5% FKS): 0.1 mM

CCCC(=O)O [Buttersäure]
% Steigerung der t-PA-Synthese Durchschnitt [1, 4]: 41,9 ± 3,8% | % Steigerung der t-PA-Synthese Maximum [1, 5]: 68,3% | optimaler Dosisbereich [1, 6]: 1-5 mM ( 1 mM) | Steigerung der t-PA-Produktion [1, 7]: 33,0 ± 5,4% | Steigerung der t-PA-Produktion [1, 8]: 40,2 ± 12,2% | Stimulierung der t-PA-Produktion ([1]; medium with 7,5% FKS (Abb. 7)): 18,1 ± 5,7% | t-PA-Synthese, bezogen auf 1 x 10⁶ Zellen ([2]; serum-free medium (Abb. 13)): > 50 µg/ 1 x 10⁶ Zellen

CC(=O)C=C(C)CC(C)(C)O [DHO, 6-Hydroxy-4,6-Dimethyl-3-hepten-2-on]
t-PA Produktion nach der Behandlung ([2]; after 144 h): erhöht

CCCCCc1oc(CCCCCCCCC(=O)O)c(C)c1C [Furanfettsäure]
% Steigerung der t-Pa-Synthese Durchschnitt [1, 9]: 19,0 ± 3,2% | % Steigerung der t-Pa-Synthese Maximum [1, 10]: 32,1%

N[C@@H](CS)C(=O)O [L-Cystein]
optimaler Dosisbereich [1, 11]: 1-10 mM ( 1mM) | % Steigerung der t-Pa-Synthese Durchschnitt [1, 12]: 20,9 ± 3,4% | % Steigerung der t-Pa-Synthese Maximum [1, 13]: 41,4% | Maximalwert des Steigerungseffektes erreicht nach ([1]; time to maximal effect (Abb. 15)): 48 h

CCCC(=O)OCC[N+](C)(C)C.[Cl-] [BCC, Butyrylcholinchlorid]
optimaler Dosisbereich [1, 14]: 5-10 mM ( 10 mM) | % Steigerung der t-PA-Synthese Durchschnitt [1, 15]: 38,8 ± 4,4% | % Steigerung der t-PA-Synthese Maximum [1, 16]: 63,9%

CC(C)C(=O)O [Isobuttersäure]
% Steigerung der t-PA-Synthese Durchschnitt [1, 4]: 16.6 ± 2,8% | % Steigerung der t-PA-Synthese Maximum [1, 5]: 32,9% | optimaler Dosisbereich [1, 6]: 0,6-10 mM (10 mM) | Steigerung der t-PA-Produktion [1, 7]: 20,1 ± 10,7% | Steigerung der t-PA-Produktion [1, 8]: 25,3 ± 5,1% | Produktionssteigerung erst nach ([1]; onset of the increase, medium with 7,5% FKS (Abb. 7)): 48 h

CCCC(=O)OCC[N+](C)(C)C.[Br-] [BCB, Butyrylcholinbromid]
optimaler Dosisbereich [1, 14]: 5-10 mM (2.5 mM) | % Steigerung der t-PA-Synthese Durchschnitt [1, 15]: 29,1 ± 4,4% | % Steigerung der t-PA-Synthese Maximum [1, 16]: 49,6%

N[C@@H](CCC(=O)N[C@@H](CS)C(=O)NCC(=O)O)C(=O)O [Glutathion]
optimaler Dosisbereich [1, 11]: 1-10 µM (10µM) | % Steigerung der t-Pa-Synthese Durchschnitt [1, 12]: 16,0 ± 2,0% | % Steigerung der t-Pa-Synthese Maximum [1, 13]: 30,6% | effektiver Konzentrationsbereich ([1]; text b134): 1 to 10 µM

CC(O)CC1CCC(C(C)C(=O)O)O1 (stereo not drawn) [Nonactinsäure]
% Steigerung der t-Pa-Synthese Durchschnitt [1, 9]: 30,3 ± 6,5% | % Steigerung der t-Pa-Synthese Maximum [1, 10]: 58,3%

O=C1O[C@H]([C@@H](O)CO)C(O)=C1O [Ascorbinsäure]
Wirkung auf die t-PA-Produktion hält an ([3]; duration of effect): 72 h | activation at 10000 µM ([3]; application day 0, after 24 h (Abb. 14), read-out: Steigerung der t-PA-Synthese): 15.2%

O=C(O)C(O)C(O)C(=O)O (stereo not drawn) [Weinsäure]
activation at 10000 µM ([3]; read-out: Steigerung der t-PA-Synthese gegenüber der Kontrolle): 10.3%
